Laboratory results reported in ChEMBL document CHEMBL1201862, “PubChem BioAssay data set” (2004).
The source made the active and inactive calls.

Columns and labels:
Format in all cases: functional
[1] = molecular target: T1, Orexin/Hypocretin receptor type 1 (Homo sapiens, UniProt O43613); test: (§1) Fluorescence-based cell-based high throughput dose response assay for antagonists of the orexin 1 receptor (OX1R; HCRTR1). [Related pubchem assays (depositor defined):AID434989, AID435008, AID463079, AID485270, AID492963, AID492964, AID492965, AID493232, AID504717, AID504718]
T1 sequence (O43613 whole entry): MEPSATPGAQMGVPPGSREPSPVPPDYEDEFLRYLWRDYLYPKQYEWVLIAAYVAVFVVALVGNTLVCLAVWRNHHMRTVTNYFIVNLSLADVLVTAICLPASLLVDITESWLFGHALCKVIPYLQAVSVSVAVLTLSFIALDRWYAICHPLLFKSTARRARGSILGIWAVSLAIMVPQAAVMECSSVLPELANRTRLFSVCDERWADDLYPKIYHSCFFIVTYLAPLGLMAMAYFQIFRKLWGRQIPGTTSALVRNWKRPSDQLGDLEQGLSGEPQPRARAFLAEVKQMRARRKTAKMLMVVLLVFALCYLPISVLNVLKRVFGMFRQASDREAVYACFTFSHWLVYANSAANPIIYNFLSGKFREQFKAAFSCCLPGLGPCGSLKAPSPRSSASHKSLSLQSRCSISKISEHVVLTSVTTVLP

[2] = (§2) Counterscreen for antagonists of the orexin 1 receptor (OX1R; HCRTR1): Fluorescence-based cell-based high throughput dose response assay to identify antagonists of the parental CHO cell line. [Related pubchem assays (depositor defined):AID434989, AID435008, AID463079, AID485270, AID492963, AID492964, AID492965, AID493232, AID504699, AID504701]
Orexin receptor type 2 [3] = molecular target: T2, Orexin receptor type 2 (Homo sapiens, UniProt O43614); test: Counterscreen assay for antagonists of the orexin 1 receptor (OX1R; HCRTR1): Fluorescence-based cell-based dose response assay for antagonists of the orexin 2 receptor (OX2R; HCRTR2), run by assay provider.
T2 sequence (O43614 whole entry): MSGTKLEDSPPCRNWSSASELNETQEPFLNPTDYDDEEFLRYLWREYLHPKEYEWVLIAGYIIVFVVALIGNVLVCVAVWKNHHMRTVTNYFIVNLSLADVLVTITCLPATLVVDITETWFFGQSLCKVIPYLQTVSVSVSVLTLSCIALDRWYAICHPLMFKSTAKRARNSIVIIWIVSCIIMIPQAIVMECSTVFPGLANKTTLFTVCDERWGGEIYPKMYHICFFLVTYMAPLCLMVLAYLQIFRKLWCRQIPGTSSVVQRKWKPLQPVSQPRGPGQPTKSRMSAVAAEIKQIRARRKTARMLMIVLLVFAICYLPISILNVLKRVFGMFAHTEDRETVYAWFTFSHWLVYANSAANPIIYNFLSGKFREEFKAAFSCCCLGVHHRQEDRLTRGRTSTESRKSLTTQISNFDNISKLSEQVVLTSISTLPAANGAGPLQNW

[4] = molecular target: T1, Orexin/Hypocretin receptor type 1; test: as §1, with “Homogeneous Time Resolved Fluorescence (HTRF)-based” for “Fluorescence-based”
CHO-K1 = test: as §2, with “Homogeneous time resolved fluorescence (HTRF)-based” for “Fluorescence-based”, “cell-based” for “cell-based high throughput”, “CHO-K1” for “CHO”; settings: Cricetulus griseus;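 note: potency for inhibition of ATP-stimulated IP1 production as antagonists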
Orexin receptor type 2 [5] = molecular target: T2, Orexin receptor type 2; test: Counterscreen assay for antagonists of the orexin 1 receptor (OX1R; HCRTR1): Homogeneous Time Resolved Fluorescence (HTRF)-based cell-based dose response assay for antagonists of the orexin 2 receptor (OX2R; HCRTR2), run by assay provider.
Caspase-3 [6] = molecular target: T3, Caspase-3 (Homo sapiens, UniProt P42574)
T3 sequence (P42574 whole entry): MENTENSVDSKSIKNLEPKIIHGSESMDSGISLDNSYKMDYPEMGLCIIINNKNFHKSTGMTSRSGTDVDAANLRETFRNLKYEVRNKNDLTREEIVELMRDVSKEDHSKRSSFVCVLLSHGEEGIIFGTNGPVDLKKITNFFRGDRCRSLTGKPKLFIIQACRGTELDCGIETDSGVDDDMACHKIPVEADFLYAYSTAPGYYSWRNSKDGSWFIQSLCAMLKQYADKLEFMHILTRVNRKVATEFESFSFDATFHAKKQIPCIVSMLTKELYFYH

[7] = molecular target: T4, Sentrin-specific protease 8 (Homo sapiens, UniProt Q96LD8);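 note: luminescence read-out of SENP8 inhibition, dose-response confirmation following an ultra-high-throughput screen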
T4 sequence (Q96LD8 whole entry): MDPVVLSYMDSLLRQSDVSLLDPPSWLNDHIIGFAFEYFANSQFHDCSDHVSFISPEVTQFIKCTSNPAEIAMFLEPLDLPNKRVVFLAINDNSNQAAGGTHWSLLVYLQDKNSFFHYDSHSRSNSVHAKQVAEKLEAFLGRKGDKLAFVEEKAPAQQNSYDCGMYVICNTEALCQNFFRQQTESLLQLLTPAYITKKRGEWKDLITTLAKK

[8] = molecular target: T5, Sentrin-specific protease 7 (Homo sapiens, UniProt Q9BQF6); test: SENP7 protease inhibitors, SAR follow-up, biochemical, luminescence (AID 504497)
T5 sequence (Q9BQF6 whole entry): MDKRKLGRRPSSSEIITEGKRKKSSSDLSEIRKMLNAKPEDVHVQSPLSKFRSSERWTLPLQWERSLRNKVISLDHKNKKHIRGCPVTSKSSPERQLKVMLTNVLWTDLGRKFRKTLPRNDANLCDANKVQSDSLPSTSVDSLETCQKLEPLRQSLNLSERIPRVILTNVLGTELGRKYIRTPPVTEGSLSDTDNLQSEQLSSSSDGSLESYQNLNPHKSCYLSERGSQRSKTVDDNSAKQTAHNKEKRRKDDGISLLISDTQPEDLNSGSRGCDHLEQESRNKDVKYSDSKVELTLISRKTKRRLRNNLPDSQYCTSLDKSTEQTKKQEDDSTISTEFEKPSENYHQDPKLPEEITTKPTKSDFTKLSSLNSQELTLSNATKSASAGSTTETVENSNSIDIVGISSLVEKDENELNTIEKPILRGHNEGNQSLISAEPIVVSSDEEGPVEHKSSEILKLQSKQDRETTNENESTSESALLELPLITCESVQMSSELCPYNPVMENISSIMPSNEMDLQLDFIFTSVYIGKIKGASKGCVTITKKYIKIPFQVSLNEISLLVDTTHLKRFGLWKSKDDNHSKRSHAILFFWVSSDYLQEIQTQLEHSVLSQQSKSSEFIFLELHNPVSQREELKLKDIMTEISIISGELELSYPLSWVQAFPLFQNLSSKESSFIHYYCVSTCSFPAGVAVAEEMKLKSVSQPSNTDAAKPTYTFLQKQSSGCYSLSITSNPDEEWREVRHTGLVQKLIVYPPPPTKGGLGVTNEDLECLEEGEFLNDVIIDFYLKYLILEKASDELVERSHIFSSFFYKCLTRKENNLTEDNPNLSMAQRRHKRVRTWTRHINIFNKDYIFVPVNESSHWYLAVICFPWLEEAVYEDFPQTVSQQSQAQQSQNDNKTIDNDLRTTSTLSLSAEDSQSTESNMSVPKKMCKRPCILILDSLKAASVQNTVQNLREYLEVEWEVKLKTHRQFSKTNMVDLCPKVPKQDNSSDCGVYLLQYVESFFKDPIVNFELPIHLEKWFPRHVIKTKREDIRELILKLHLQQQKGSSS

[9] = molecular target: T6, Sentrin-specific protease 6 (Homo sapiens, UniProt Q9GZR1)
T6 sequence (Q9GZR1 whole entry): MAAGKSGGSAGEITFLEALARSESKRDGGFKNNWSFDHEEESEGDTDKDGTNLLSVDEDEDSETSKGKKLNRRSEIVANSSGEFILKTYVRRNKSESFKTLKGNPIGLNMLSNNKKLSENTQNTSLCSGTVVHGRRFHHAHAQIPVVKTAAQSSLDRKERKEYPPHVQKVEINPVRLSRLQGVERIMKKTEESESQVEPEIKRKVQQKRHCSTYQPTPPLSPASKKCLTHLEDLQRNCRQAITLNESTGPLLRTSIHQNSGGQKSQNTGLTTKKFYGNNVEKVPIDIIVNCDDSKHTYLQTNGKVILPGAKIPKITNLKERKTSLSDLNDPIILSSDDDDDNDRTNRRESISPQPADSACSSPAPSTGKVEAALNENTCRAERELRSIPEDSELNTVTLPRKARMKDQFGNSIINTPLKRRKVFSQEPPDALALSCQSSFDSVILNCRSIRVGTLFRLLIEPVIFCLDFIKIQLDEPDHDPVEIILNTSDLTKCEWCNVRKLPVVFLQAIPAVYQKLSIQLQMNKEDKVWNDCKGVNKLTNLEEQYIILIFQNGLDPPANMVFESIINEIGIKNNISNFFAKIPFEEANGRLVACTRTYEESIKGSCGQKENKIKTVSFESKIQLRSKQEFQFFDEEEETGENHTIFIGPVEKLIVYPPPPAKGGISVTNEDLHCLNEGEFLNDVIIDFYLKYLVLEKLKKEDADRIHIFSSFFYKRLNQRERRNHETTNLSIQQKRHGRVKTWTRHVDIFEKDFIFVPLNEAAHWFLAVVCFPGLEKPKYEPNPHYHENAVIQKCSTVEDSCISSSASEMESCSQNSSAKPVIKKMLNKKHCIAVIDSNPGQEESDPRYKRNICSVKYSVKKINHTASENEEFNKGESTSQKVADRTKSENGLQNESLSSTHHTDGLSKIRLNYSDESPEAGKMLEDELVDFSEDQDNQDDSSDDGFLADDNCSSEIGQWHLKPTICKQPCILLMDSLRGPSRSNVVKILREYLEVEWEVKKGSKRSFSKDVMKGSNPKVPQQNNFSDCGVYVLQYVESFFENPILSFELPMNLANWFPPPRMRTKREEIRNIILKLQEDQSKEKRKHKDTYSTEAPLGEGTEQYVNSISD

Caspase-3 [10] = molecular target: T3, Caspase-3; test: SAR Analysis of small molecule inhibitors of Sentrin-specific proteases (SENPs) using a Caspase-3 Selectivity assay. [Related pubchem assays (depositor defined):AID2540, AID2599, AID434973, AID489001]
[11] = molecular target: T6, Sentrin-specific protease 6; test: SAR Analysis of small molecule inhibitors of Sentrin-specific protease 6 (SENP6) using a Luminescent assay. [Related pubchem assays (depositor defined):AID2582, AID2599]
[12] = molecular target: T5, Sentrin-specific protease 7

O=C(N/N=C/c1c(Cl)[nH]c2ccccc12)c1sc2ccccc2c1Cl
IC50 [1]: 3.23 µM (active)
IC50 [2]: > 49.7 µM (inactive)
IC50 (Orexin receptor type 2 [3]): > 88.8 µM (inactive)
IC50 [4]: 2.14 µM (active)
IC50 (CHO-K1): > 66.2 µM (inactive)
IC50 (Orexin receptor type 2 [5]): 6.88 µM (active)

Fc1ccc(COc2ccc(C(=S)N3CCCC3)cc2)cc1
IC50 (Caspase-3 [6]): 7.14 µM (active)
IC50 [7]: 2.46 µM (active)
IC50 [8]: 2.16 µM (active)
IC50 [9]: 8.99 µM (active)
IC50 (Caspase-3 [10]): 1.31 µM (active)
IC50 [11]: 1.68 µM (active)
IC50 [12]: 5.33 µM (active)

Cc1c(C(=O)Nc2ccc(N3CCOCC3)cc2)oc2ccccc12
IC50 [1]: 1.46 µM (active)
IC50 [2]: > 49.8 µM (inactive)
IC50 (Orexin receptor type 2 [3]): > 88.8 µM (inactive)
IC50 [4]: 0.277 µM (active)
IC50 (CHO-K1): > 66.2 µM (inactive)
IC50 (Orexin receptor type 2 [5]): > 50 µM (inactive)
